Measurements: patent publication US10364216B2, “Alkenyl sulfate ester or salt thereof” (Kao Corporation, priority 2013, dated 2019)
Counter-ions that a name gives are not always drawn. Residues, ends and D or L forms follow the SMILES beside them.

How the values were obtained:
Format in all cases: in vivo, human
[1] = Sweetness adjusting action on sucrose, aspartame, sucralose, glycyrrhizin (simultaneous intake); conditions: sucrose 7.5 wt %, aspartame 494 ppm, sucralose 0.49 mM, glycyrrhizin 303 ppm, alone or containing 5 mM trans-3-octenyl sulfate, scale 0 to 15; for Sweetness intensity (mean) When drinking water after 30 seconds: 10 mL pure water 30 seconds after sample; for Sweetness intensity (mean) When drinking sample: 10 mL
Experimental: To seven examiners, four kinds of 10 mL aqueous sucrose standard solutions (2.5, 5.0, 7.5 and 10.0 wt %) were presented. The examiners kept each of the solutions in their mouth for 5 seconds or so, and then spat the solution out, and were asked to consider the sweetness intensity at that time (0 to 15) to be 2.5, 5, 7.5 and 10, respectively. Next, the examiners kept 10 mL aqueous solution (7.5 wt %) of sucrose in their mouth for 5 seconds or so without knowing the kind and the concentration of the sweetener, and then spat the solution out, and compared the sweetness intensity at that time with that of the aqueous sucrose standard solution, and evaluated the sweetness intensity with a number in a range of 0 to 15. In addition, after 30 seconds, the examiners kept 10 mL pure water in their mouth, and then spat the solution out, and compared the sweetness intensity felt at that time with that of the aqueous sucrose standard solution, and evaluated the sweetness intensity in the same manner. Subsequently, the examiners were presented with 10 mL aqueous sucrose solution containing 5 mM trans-3-octenyl sulfate (7.5 wt %), and kept it in their mouth for 5 seconds or so, and then spat the solution out, and compared the sweetness intensity at that time with the sweetness intensity of the aqueous sucrose standard solution, and evaluated the sweetness intensity in the same manner. In addition, immediately after that, the examiners kept 10 mL pure water in their mouth for 5 seconds or so, and then spat the solution out, and compared the sweetness intensity at that time with that of the aqueous sucrose standard solution, and evaluated the sweetness intensity in the same manner. In addition, after 30 seconds, the examiners kept 10 mL pure water in their mouth, and then spat the solution out, and compared the sweetness intensity felt at that time with that of the aqueous sucrose standard solution, and evaluated the sweetness intensity in the same manner.
To seven examiners, 4 kinds of 10 mL aqueous sucrose standard solutions (2.5, 5.0, 7.5 and 10.0 wt %) were presented. The examiners kept each of the solutions in their mouth for 5 seconds or so, and then spat the solution out, and were asked to consider the sweetness intensity at that time (0 to 15) to be 2.5, 5, 7.5 and 10, respectively. Next, the examiners kept 10 mL aqueous solution of aspartame (494 ppm) in their mouth for 5 seconds or so without knowing the kind and the concentration of the sweetener, and then spat the solution out, and compared the sweetness intensity at that time with that of the aqueous sucrose standard solution, and evaluated the sweetness intensity with a number in a range of 0 to 15. The concentration of aspartame was prepared to have the same sweetness intensity as that of the aqueous sucrose solution (7.5 wt %) in accordance with the reference (Schiffman, S. S. et al. Chemical senses, 1999, 24, 439-447.). In addition, after 30 seconds, the examiners kept 10 mL pure water in their mouth, and then spat the solution out, and compared the sweetness intensity felt at that time with that of the aqueous sucrose standard solution, and evaluated the sweetness intensity in the same manner. Subsequently, the examiners were presented with 10 mL aqueous solution of aspartame containing 5 mM trans-3-octenyl sulfate (494 ppm), and kept it in their mouth for 5 seconds or so, and then spat the solution out, and compared the sweetness intensity at that time with the sweetness intensity of the sucrose standard solution, and evaluated the sweetness intensity in the same manner. In addition, after 30 seconds, the examiners kept 10 mL pure water in their mouth, and then spat the solution out, and compared the sweetness intensity felt at that time with that of the aqueous sucrose standard solution, and evaluated the sweetness intensity in the same manner. […]

[2] = Action of reinforcing sweetness (previous intake of trans-3-octenyl sulfate); conditions: scale 0 to 15, six examiners
Experimental: To six examiners, 4 kinds of 10 mL aqueous solutions of sucrose standard (2.5, 5.0, 7.5 and 10.0 wt %) were presented. The examiners kept each of the solutions in their mouth for 5 seconds or so, and then spat the solution out, and were asked to consider the sweetness intensity at that time (0 to 15) to be 2.5, 5, 7.5 and 10, respectively. Next, the examiners kept 10 mL aqueous solution of sucralose (0.25 mM) in their mouth for 5 seconds or so without knowing the kind and the concentration of the sweetener, and then spat the solution out, and compared the sweetness intensity at that time with that of the aqueous sucrose standard solution, and evaluated the sweetness intensity with a number in a range of 0 to 15. Subsequently, the examiners kept 10 mL solution of 5 mM trans-3-octenyl sulfate in advance in their mouth for 5 seconds or so in advance, and then spat the solution out, and after passage of 60 seconds, the examiners kept 10 mL aqueous solution of sucralose (0.25 mM) in their mouth for 5 seconds or so, and then spat the solution out, and compared the sweetness intensity at that time with that of the aqueous sucrose standard solution, and evaluated the sweetness intensity with a number in a range of 0 to 15.
To six examiners, 4 kinds of 10 mL aqueous sucrose standard solutions (2.5, 5.0, 7.5 and 10.0 wt %) were presented. The examiners kept each of the solutions in their mouth for 5 seconds or so, and then spat the solution out, and were asked to consider the sweetness intensity at that time (0 to 15) to be 2.5, 5, 7.5 and 10, respectively. Next, the examiners kept 10 mL aqueous solution of glycyrrhizin (0.25 mM) in their mouth for 5 seconds or so without knowing the kind and the concentration of the sweetener, and then spat the solution out, and compared the sweetness intensity at that time with that of the aqueous sucrose standard solution, and evaluated the sweetness intensity with a number in a range of 0 to 15. Subsequently, the examiners kept 10 mL solution of 5 mM trans-3-octenyl sulfate in their mouth for 5 seconds or so in advance, and then spat the solution out, and after passage of 60 seconds, the examiners kept 10 mL aqueous solution of glycyrrhizin (0.25 mM) in their mouth for 5 seconds or so, and then spat the solution out, and compared the sweetness intensity at that time with that of the aqueous sucrose standard solution, and evaluated the sweetness intensity with a number in a range of 0 to 15.

[3] = Evaluation of sweetness (1)/(2): presence or absence of sweetness judged by examiners
Experimental: Trans-3-octenyl sulfate was dissolved in water to be 1 wt %, which was taken as a test sample. Six examiners kept 50 μL of the prepared test sample in their mouth, and then drunk some water, and judged for presence or absence of sweetness.
Cis-3-octenyl sulfate was dissolved in water to 1 wt %, which was taken as a test sample. Four examiners kept 50 μL of the prepared test sample in their mouth, and then drunk some water, and judged presence or absence of sweetness.

[4] = Evaluation of sweetness (3)/(4): sweetness intensity over time against sucrose standard solutions
Experimental: (§1) To seven examiners, 4 kinds of 10 mL aqueous sucrose standard solutions (2.5, 5.0, 7.5 and 10.0 wt %) were presented. The examiners kept each of the solutions in their mouth for 5 seconds or so, and then spat the solution out, and were asked to consider the sweetness intensity at that time (0 to 15) to be 2.5, 5, 7.5 and 10, respectively. Next, the examiners kept 10 mL solution of 10 mM trans-3-octenyl sulfate in their mouth for 5 seconds or so, and then spat the solution out, and compared the sweetness intensity at that time with that of the aqueous sucrose standard solution, and evaluated the sweetness intensity with a number in a range of 0 to 15. Then, the examiners kept 10 mL pure water for 5 minutes at an interval of 30 seconds, and then spat the solution out, and evaluated the sweetness intensity at that time in the same manner.
as §1, with “four” for “4”, “cis-3-octenyl” for “trans-3-octenyl”, “water in their mouth” for “water”

[5] = No previous intake of trans-3-octenyl sulfate, 10 mL sweetener 0.25 mM
[6] = Previous intake of 10 mL 5 mM trans-3-octenyl sulfate, 60 seconds before 10 mL sweetener 0.25 mM
[7] = 1 wt % in water, 50 μL kept in mouth, then water (13 ml), six examiners (trans), four examiners (cis)

COC(=O)[C@H](Cc1ccccc1)NC(=O)[C@@H](N)CC(=O)O [Aspartame, aspartame] (H-Asp-Phe-OMe)
Sweetness intensity (mean) When drinking water after 30 seconds [1]: 1.0
Sweetness intensity (mean) When drinking sample [1]: 7.1

OC[C@H]1O[C@H](O[C@]2(CCl)O[C@H](CCl)[C@@H](O)[C@@H]2O)[C@H](O)[C@@H](O)[C@H]1Cl [Sucralose, sucralose]
Sweetness intensity (mean) [2, 5]: 7.3
Sweetness intensity (mean) [2, 6]: 10.2
Sweetness intensity (mean) When drinking water after 30 seconds [1]: 0.4
Sweetness intensity (mean) When drinking sample [1]: 8.4

OC[C@H]1O[C@@](CO)(O[C@H]2O[C@H](CO)[C@@H](O)[C@H](O)[C@H]2O)[C@@H](O)[C@@H]1O [Sucrose, sucrose]
Sweetness intensity (mean) When drinking water after 30 seconds [1]: 0.1
Sweetness intensity (mean) When drinking sample [1]: 7.1

CC1(C)[C@@H](O[C@H]2O[C@H](C(=O)O)[C@@H](O)[C@H](O)[C@H]2O[C@@H]2O[C@H](C(=O)O)[C@@H](O)[C@H](O)[C@H]2O)CC[C@]2(C)[C@H]3C(=O)C=C4[C@@H]5C[C@@](C)(C(=O)O)CC[C@]5(C)CC[C@@]4(C)[C@]3(C)CC[C@@H]12 [Glycyrrhizin, glycyrrhizin]
Sweetness intensity (mean) [2, 5]: 3.4
Sweetness intensity (mean) [2, 6]: 7.3
Sweetness intensity (mean) When drinking water after 30 seconds [1]: 3.2
Sweetness intensity (mean) When drinking sample [1]: 4.1

CCCC/C=C\CCOS(=O)(=O)O [cis-3-octenyl sulfate]
No sweetness felt (number of examiners) [3, 7]: 0
Sweetness felt (number of examiners) [3, 7]: 4
Duration of sweetness ([3]; 1 wt %, 50 μL, then water): the sweetness lasted for a certain time
Examiners who recognized the sweetness by virtue of intake of water ([4]; 10 mL of 10 mM solution, then pure water every 30 seconds): seven out of the seven
Duration of sweetness ([4]; 10 mL of 10 mM solution, then pure water every 30 seconds for 5 minutes): the sweetness lasted for a certain time
Sweetness intensity (mean) ([4]; Time 0 minute, 10 mL of 10 mM solution kept 5 seconds, scale 0 to 15 vs sucrose standards, seven examiners): 0.0
Sweetness intensity (mean) ([4]; Time 0.5 minute, on keeping 10 mL pure water, after 10 mM solution, scale 0 to 15): 1.8
Sweetness intensity (mean) ([4]; Time 1 minute, on keeping 10 mL pure water, after 10 mM solution, scale 0 to 15): 3.2
Sweetness intensity (mean) ([4]; Time 1.5 minute, on keeping 10 mL pure water, after 10 mM solution, scale 0 to 15): 3.4
Sweetness intensity (mean) ([4]; Time 2 minute, on keeping 10 mL pure water, after 10 mM solution, scale 0 to 15): 2.6
Sweetness intensity (mean) ([4]; Time 2.5 minute, on keeping 10 mL pure water, after 10 mM solution, scale 0 to 15): 2.1
Sweetness intensity (mean) ([4]; Time 3 minute, on keeping 10 mL pure water, after 10 mM solution, scale 0 to 15): 1.4
Sweetness intensity (mean) ([4]; Time 3.5 minute, on keeping 10 mL pure water, after 10 mM solution, scale 0 to 15): 1.4
Sweetness intensity (mean) ([4]; Time 4 minute, on keeping 10 mL pure water, after 10 mM solution, scale 0 to 15): 0.9
Sweetness intensity (mean) ([4]; Time 4.5 minute, on keeping 10 mL pure water, after 10 mM solution, scale 0 to 15): 0.5
Sweetness intensity (mean) ([4]; Time 5 minute, on keeping 10 mL pure water, after 10 mM solution, scale 0 to 15): 0.5
